Reference: patent publication US20050277615A1, “Pharmaceutical compositions having anti-inflammatory activity” (CAN-FITE BIOPHARMA LTD., priority 2004, published 2005)

How the values were obtained:
[1] = biological target: T1, human adenosine A2A receptors expressed in CHO cells (Homo sapiens, UniProt P29274); assay: cAMP assay A2A (stimulation of cAMP production); type: cell-based
T1 construct: expressed in transfected cells; host or cells: CHO
Method: After incubation for 40 minutes at 37° C., 100 μL agonist was added. […] Wells were stored at −20° C. until assay.
Wells were stored at −20° C. until assay. […] As a buffer was used 150 mM K2HPO4/10 mM EDTA/0.2% Bovine Serum Albumine (BSA) at pH 7.5.
(§1) Data Analysis. Apparent Ki and EC50 values were computed from the displacement curves by non-linear regression of the competition curves with the software package Prism (Graph Pad, San Diego, Calif.).

phosphorylated GSK-3β = assay: Western blot of spinal cord protein extract of EAE rats; type: in vivo, rat; conditions: treated vs untreated (FIG. 2)
IL-10 = assay: as above; type: in vivo, rat; conditions: treated vs untreated (FIG. 2)
[2] = test system: colitis in male Balb/C mice; assay: Dextran sodium sulfate colitis model; type: in vivo, mouse; conditions: 5% DSS Balb/c mice
Source text: Colitis induced by dextran sodium sulfate is a murine model of intestinal inflammation that resembles human inflammatory bowel diseases such as Crohn's disease. Male Balb/C mice, 8 weeks of age were fed for 7 days, with 5% dextran sulfate sodium in distilled water throughout the experiments. […] Weight loss and survival were monitored.

[3] = test system: Experimental autoimmune encephalomyelitis (EAE) in female Lewis rats; assay: MBP-induced EAE in Lewis rats, clinical score; type: in vivo, rat; conditions: 10 μg/kg PO BID from day 7, difference in maximal clinical score P<0.01 (FIG. 1)
Method: EAE is an inflammatory demyelinating disease of the nervous system, which serves as a model for multiple sclerosis (MS). EAE was induced by intradermal injection at the base of the tail of female Lewis rats (8 weeks old) with an emulsion consisting of the following for each rat: 100 μg myelin basic protein (MBP) from guinea pig (M2295; Sigma), 0.1 ml Complete Freund's adjuvant (CFA; F5506, Sigma), and 0.2 mg of Mycobacterium tuberculosis H37 Ra (M. tuberculosis, 3114, Difco). The emulsion was injected in two halves into the medial footpad of each hind limb of the rats.
The rats developed clinical EAE symptoms which were graded into the following categories: 0, no neurological symptoms; 1, loss of tail tonus and paralysis of the whole tail; 2, hind limbs weakness; 3, hind limbs paralysis; 4, quadriplegia; 5, moribund. The immunized rats developed acute monophasic EAE within 10 days after immunization.

[4] = biological target: T2, A2A receptor in rat striatum (Rattus norvegicus, UniProt P30543); assay: Radioligand binding, [3H]ZM 241385 displacement; conditions: [3H]ZM 241385, rat striatal membranes
T2 construct: the A2A receptor in rat striatum; from tissue; host or cells: rat striatum
T2 sequence (P30543 whole entry): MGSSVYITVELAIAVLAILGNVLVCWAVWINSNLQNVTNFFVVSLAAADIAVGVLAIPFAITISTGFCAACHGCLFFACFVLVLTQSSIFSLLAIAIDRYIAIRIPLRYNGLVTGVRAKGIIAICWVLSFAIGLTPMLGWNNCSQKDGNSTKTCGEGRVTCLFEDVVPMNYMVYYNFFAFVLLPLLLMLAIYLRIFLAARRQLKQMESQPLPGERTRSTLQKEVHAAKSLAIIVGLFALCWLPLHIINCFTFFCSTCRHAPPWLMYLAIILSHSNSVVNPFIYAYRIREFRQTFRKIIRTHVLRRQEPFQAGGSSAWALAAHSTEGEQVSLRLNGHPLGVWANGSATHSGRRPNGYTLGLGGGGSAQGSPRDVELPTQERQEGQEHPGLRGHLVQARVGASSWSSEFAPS

[5] = biological target: T3, adenosine A1 receptor in rat brain cortex (Rattus norvegicus, UniProt P25099); assay: Radioligand binding, [3H]DPCPX displacement; conditions: rat cortical membranes, 10 μM
T3 construct: the adenosine A1 receptor in rat brain cortex; from tissue; host or cells: rat brain cortex
T3 sequence (P25099 1-326): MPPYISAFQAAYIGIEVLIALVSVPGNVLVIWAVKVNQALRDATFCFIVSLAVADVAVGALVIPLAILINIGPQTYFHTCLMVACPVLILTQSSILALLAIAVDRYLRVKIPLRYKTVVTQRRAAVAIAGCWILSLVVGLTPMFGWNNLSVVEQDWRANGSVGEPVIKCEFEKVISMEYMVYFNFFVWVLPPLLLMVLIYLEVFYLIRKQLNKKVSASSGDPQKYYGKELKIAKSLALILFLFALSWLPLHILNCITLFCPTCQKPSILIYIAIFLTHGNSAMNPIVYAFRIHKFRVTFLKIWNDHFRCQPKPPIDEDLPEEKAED

[6] = Preliminary qualitative solubility study; type: physicochemical; conditions: 1 mg/ml, ambient temperature
TNF-α = assay: Western blot of spinal cord protein extract of EAE rats; type: in vivo, rat; conditions: treated vs untreated (FIG. 2)
EAE in female C57B1 mice = assay: MOG-induced EAE in C57B1 mice, clinical score; type: in vivo, mouse; conditions: MOG-immunized C57BL/6J female mice, oral treatment from day 7 (FIG. 3)
Method: . The encephalitogenic emulsion containing MOG (300 μg/mouse) in Complete Freund's adjuvant enriched with 5 mg/mL Mycobacterium Tuberculosis was injected subcutaneously in the right flank of the mouse. A boost of the encephalitogenic emulsion was injected subcutaneously in the left flank one week later. Also, on the day of the first injection of MOG, Pertussis toxin (300 ng/mouse) was injected intraperitoneally at a volume dose of 0.1 mL/mouse. The injection of the Pertussis Toxin was repeated after 48 hours. The mice were observed daily from the 10th day post-EAE induction (first injection of MOG) and the EAE clinical signs were scored as follows:. 0—No neurological signs; 1—Distal limp tail: 1.5—Complete limp tail; 2—Difficulties to return on feet when laid on the back; 3—Ataxia; 4—Early paralysis; 5—Full paralysis; 6—Moribund/Death. […] The clinical score was monitored daily starting with the appearance of neurological signs.

[7] = biological target: T4, human A3 receptor as expressed in HEK 293 cells (Homo sapiens, UniProt P0DMS8); assay: Radioligand binding, [125I]AB-MECA displacement; conditions: human A3 receptor in HEK 293 cells, ±SEM, n = 3
T4 construct: expressed in transfected cells; host or cells: HEK 293
T4 sequence (P0DMS8 1-318): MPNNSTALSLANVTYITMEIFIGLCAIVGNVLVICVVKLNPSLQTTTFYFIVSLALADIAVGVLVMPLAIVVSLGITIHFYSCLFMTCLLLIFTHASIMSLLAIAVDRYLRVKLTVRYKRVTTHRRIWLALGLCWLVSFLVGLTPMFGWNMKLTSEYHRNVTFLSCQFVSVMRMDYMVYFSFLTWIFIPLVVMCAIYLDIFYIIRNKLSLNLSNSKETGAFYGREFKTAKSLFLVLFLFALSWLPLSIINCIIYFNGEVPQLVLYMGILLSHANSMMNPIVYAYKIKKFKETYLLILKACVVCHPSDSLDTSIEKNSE
Method: General. […] AB-MECA, an A3 receptor agonist, was used. Displacement experiments were performed in the absence of GTP.
Radioligand Binding Studies. […] Incubations were carried out for 1 hr at 37° C. and were terminated by rapid filtration over Whatman GF/B filters, using a Brandell cell harvester (Brandell, Gaithersburg, Md.). Tubes were washed three times with 3 ml of buffer. Radioactivity was determined in a Beckman 5500B γ-counter. Nonspecific binding was determined in the presence of 10^−5 M R-PIA.
as §1

A1 receptor = biological target: T5, A1 receptor (Rattus norvegicus, UniProt P25099); conditions: Siddiqi et al (1995); cited from earlier work
T5 sequence (P25099 1-326): T3 sequence (P25099 1-326)

A2a receptor = A2a receptor (Rattus norvegicus, UniProt P30543); conditions: Siddiqi et al (1995); cited from earlier work
Sequence of A2a receptor (P30543 whole entry): as the sequence (P30543 whole entry) above

[8] = test system: multiple sclerosis (MS) patients; conditions: patients having MS, U.S. Pat. No. 5,506,214; cited from earlier work

T1 sequence (P29274 whole entry): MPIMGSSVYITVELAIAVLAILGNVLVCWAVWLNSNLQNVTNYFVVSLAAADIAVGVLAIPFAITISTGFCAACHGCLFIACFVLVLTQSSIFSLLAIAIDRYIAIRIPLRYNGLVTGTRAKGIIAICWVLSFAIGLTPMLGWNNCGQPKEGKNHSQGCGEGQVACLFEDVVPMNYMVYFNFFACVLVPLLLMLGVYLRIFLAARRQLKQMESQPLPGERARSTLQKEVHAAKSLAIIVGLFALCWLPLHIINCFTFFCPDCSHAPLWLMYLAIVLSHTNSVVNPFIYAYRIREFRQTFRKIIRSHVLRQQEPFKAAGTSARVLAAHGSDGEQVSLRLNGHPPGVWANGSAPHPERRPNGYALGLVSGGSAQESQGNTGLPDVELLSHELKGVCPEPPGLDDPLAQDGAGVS

CCCCC#Cc1nc(N)c2ncn(C3OC(CSC)C(O)C3O)c2n1 (stereo not drawn) [CF402, 5′-deoxy-2-(1-hexynyl)-5′-methylthioadenosine]
Emax ([1]; CHO): 45 ± 6%
EC50 ([1]; cAMP production, A2A CHO cells): 0.7 ± 0.1 µM
Phosphorylated GSK-3β protein expression level in spinal cord (phosphorylated GSK-3β): decrease
Level of IL-10 in spinal cord protein extract (IL-10): up-regulation
Clinical signs of colitis ([2]; 10 μg/kg PO BID from day 4): protected
Weight loss vs control ([2]; 10 μg/kg PO BID from day 4 (FIG. 4)): reduced weight loss
Clinical EAE score vs control group [3]: remarkably low clinical score
Ki ([4]; ±SEM, n = 3): 60 ± 20 nM
% displacement at 10^−5 M, A1 [5]: 36%
Solubility in DMSO ([6]; DMSO): Soluble
Solubility in water ([6]; water): Insoluble
Level of TNF-α in spinal cord protein extract (TNF-α): down-regulation
Inhibition of development of EAE clinical signs vs control group (EAE in female C57B1 mice): 40%

OC[C@H]1O[C@@H](n2cnc3c(NC4CCCC4)ncnc32)[C@H](O)[C@@H]1O [CPA]
Ki [7]: 120 ± 15 nM

Nc1nc(Cl)nc2c1ncn2[C@H]1C[C@H](O)[C@@H](CO)O1 [CdA, 2-chloro-2′-deoxyadenosine]
Type of action at A1 receptors (A1 receptor): putative partial agonist
Ki (A2a receptor): 20000 nM
Effect on MS disease condition [8]: markedly ameliorate

CNC(=O)[C@H]1O[C@@H](n2cnc3c(NCc4cccc(I)c4)nc(Cl)nc32)[C@H](O)[C@@H]1O [Cl-IB-MECA, reference compound]
% displacement at 10^−5 M, A2A ([4]; 10 μM): 24%
